Patent publication US6737383B1, “Herbicidal oxadiazolidines” (priority 1999, dated 2004)

How the values were obtained:
[1] = system: blackgrass; experiment: Test B pre/postemergence blackgrass; type: in vivo, Alopecurus myosuroides
Method in brief: (§1)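 Response is a visual 0-to-10 score relative to untreated plants, where 0 means no effect and 10 means complete control, taken twelve to sixteen days after application. Treatments went onto soil at planting and onto foliage of 1- to 4-leaf plants, using a surfactant-containing non-phytotoxic solvent.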

[2] = system: surinam grass; experiment: Test B pre/postemergence surinam grass; type: in vivo, Brachiaria decumbens
Method in brief: as §1

[3] = system: cocklebur; experiment: Test B pre/postemergence cocklebur; type: in vivo, Xanthium strumarium
Method in brief: as §1

[4] = system: corn; experiment: Test B pre/postemergence corn; type: in vivo, Zea mays
Method in brief: as §1

[5] = system: crabgrass; experiment: Test B pre/postemergence crabgrass; type: in vivo, Digitaria sanguinalis
Method in brief: as §1

[6] = system: giant foxtail; experiment: Test B pre/postemergence giant foxtail; type: in vivo, Setaria faberii
Method in brief: as §1

[7] = system: morningglory; experiment: Test B pre/postemergence morningglory; type: in vivo, Ipomoea hederacea
Method in brief: as §1

[8] = system: pigweed; experiment: Test B pre/postemergence pigweed; type: in vivo, Amaranthus retroflexus
Method in brief: as §1

[9] = system: rape; experiment: Test B pre/postemergence rape; type: in vivo, Brassica napus
Method in brief: as §1

[10] = system: soybean; experiment: Test B pre/postemergence soybean; type: in vivo, Glycine max
Method in brief: as §1

[11] = system: sugar beet; experiment: Test B pre/postemergence sugar beet; type: in vivo, Beta vulgaris
Method in brief: as §1

[12] = system: velvetleaf; experiment: Test B pre/postemergence velvetleaf; type: in vivo, Abutilon theophrasti
Method in brief: as §1

[13] = system: wheat; experiment: Test B pre/postemergence wheat; type: in vivo, Triticum aestivum
Method in brief: as §1

[14] = system: wild oat; experiment: Test B pre/postemergence wild oat; type: in vivo, Avena fatua
Method in brief: as §1

[15] = system: purple nutsedge; experiment: Test B pre/postemergence purple nutsedge; type: in vivo, Cyperus rotundus
Method in brief: as §1

[16] = system: rice; experiment: Test B flood test rice; type: in vivo, Oryza sativa
Method in brief: (§2)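 Each value is a visual injury score relative to controls, with 10 meaning complete control and 0 no effect. Evaluation took place twelve to sixteen days after the 2-leaf-stage plants were treated and kept in the greenhouse.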

[17] = system: smallflower flatsedge; experiment: Test B flood test smallflower flatsedge; type: in vivo, Cyperus difformis
Method in brief: as §2

[18] = system: duck salad; experiment: Test B flood test duck salad; type: in vivo, Heteranthera limosa
Method in brief: as §2

[19] = system: bamyardgrass; experiment: Test B flood test barnyardgrass; type: in vivo, Echinochloa crus-galli
Method in brief: as §2

[20] = Postemergence, Rate 31 g/ha, visual rating, scale 0 to 10 (0 no effect, 10 complete control)
[21] = Postemergence, Rate 62 g/ha, scale 0 to 10, 0 is no effect, 10 is complete control
[22] = Postemergence, Rate 125 g/ha, scale of 0 to 10 where 0 is no effect and 10 is complete control
[23] = Postemergence, Rate 250 g/ha, scale of 0 to 10, 0 is no effect, 10 is complete control
[24] = Preemergence, Rate 31 g/ha, visual rating, scale 0 to 10 (0 no effect, 10 complete control)
[25] = Preemergence, Rate 62 g/ha, scale of 0 to 10 where 0 is no effect and 10 is complete control
[26] = Preemergence, Rate 125 g/ha, scale of 0 to 10 where 0 is no effect and 10 is complete control
[27] = Preemergence, Rate 250 g/ha, scale 0 to 10 (0 no effect, 10 complete control)
[28] = Rate 31 g/ha, Pre-emergence section (flood test species), scale 0 to 10
[29] = Rate 62 g/ha, flood test species, Pre-emergence, visual evaluation after twelve to sixteen days
[30] = Rate 125 g/ha, under heading Pre-emergence, flood test species, visual evaluation after twelve to sixteen days
[31] = Rate 250 g/ha, Pre-emergence (flood test species), scale 0 to 10, 0 is no effect, 10 is complete control

CCOP(=O)(OCC)C(C)n1c(=O)on(C(=O)N(c2ccc(Cl)cc2)C(C)C)c1=O (centres unmarked) [Compound 644]
Blackgrass plant response rating [1, 20]: 0 | Plant response rating, Blackgrass [1, 21]: 0 | Blackgrass plant response rating [1, 22]: 0 | Blackgrass plant response rating [1, 23]: 0 | Blackgrass plant response rating [1, 24]: 0 | Blackgrass plant response rating [1, 25]: 0 | Blackgrass plant response rating [1, 26]: 0 | Plant response rating, Blackgrass [1, 27]: 0 | B. signalgrass plant response rating [2, 20]: 0 | Plant response rating, B. signalgrass [2, 21]: 0 | Plant response rating, B. signalgrass [2, 22]: 0 | B. signalgrass plant response rating [2, 23]: 0 | B. signalgrass plant response rating [2, 24]: 0 | B. signalgrass plant response rating [2, 25]: 0 | B. signalgrass plant response rating [2, 26]: 0 | Plant response rating, B. signalgrass [2, 27]: 2 | Cocklebur plant response rating [3, 20]: 0 | Plant response rating, Cocklebur [3, 21]: 0 | Cocklebur plant response rating [3, 22]: 0 | Cocklebur plant response rating [3, 23]: 0 | Cocklebur plant response rating [3, 24]: 0 | Cocklebur plant response rating [3, 25]: 0 | Cocklebur plant response rating [3, 26]: 0 | Plant response rating, Cocklebur [3, 27]: 0 | Corn plant response rating [4, 20]: 0 | Plant response rating, Corn [4, 21]: 0 | Corn plant response rating [4, 22]: 0 | Corn plant response rating [4, 23]: 0 | Corn plant response rating [4, 24]: 0 | Corn plant response rating [4, 25]: 0 | Corn plant response rating [4, 26]: 0 | Plant response rating, Corn [4, 27]: 0 | Crabgrass plant response rating [5, 20]: 0 | Plant response rating, Crabgrass [5, 21]: 0 | Crabgrass plant response rating [5, 22]: 0 | Crabgrass plant response rating [5, 23]: 0 | Crabgrass plant response rating [5, 24]: 2 | Crabgrass plant response rating [5, 25]: 2 | Plant response rating, Crabgrass [5, 27]: 3 | Giant foxtail plant response rating [6, 20]: 0 | Plant response rating, Giant foxtail [6, 21]: 0 | Giant foxtail plant response rating [6, 22]: 0 | Giant foxtail plant response rating [6, 23]: 0 | Giant foxtail plant response rating [6, 24]: 0 | Giant foxtail plant response rating [6, 25]: 0 | Giant foxtail plant response rating [6, 26]: 2 | Plant response rating, Giant foxtail [6, 27]: 6 | Morningglory plant response rating [7, 20]: 0 | Plant response rating, Morningglory [7, 21]: 0 | Morningglory plant response rating [7, 22]: 0 | Morningglory plant response rating [7, 23]: 0 | Morningglory plant response rating [7, 25]: 0 | Morningglory plant response rating [7, 26]: 0 | Plant response rating, Morningglory [7, 27]: 3 | Redroot pigweed plant response rating [8, 20]: 2 | Plant response rating, Redroot pigweed [8, 21]: 2 | Redroot pigweed plant response rating [8, 22]: 3 | Redroot pigweed plant response rating [8, 23]: 3 | Redroot pigweed plant response rating [8, 25]: 0 | Redroot pigweed plant response rating [8, 26]: 0 | Plant response rating, Redroot pigweed [8, 27]: 0 | Rape plant response rating [9, 20]: 0 | Plant response rating, Rape [9, 21]: 0 | Rape plant response rating [9, 22]: 0 | Rape plant response rating [9, 23]: 0 | Rape plant response rating [9, 25]: 0 | Rape plant response rating [9, 26]: 0 | Plant response rating, Rape [9, 27]: 2 | Soybean plant response rating [10, 20]: 0 | Plant response rating, Soybean [10, 21]: 0 | Soybean plant response rating [10, 22]: 0 | Soybean plant response rating [10, 25]: 0 | Soybean plant response rating [10, 26]: 0 | Plant response rating, Soybean [10, 27]: 0 | Sugarbeets plant response rating [11, 20]: 0 | Plant response rating, Sugarbeets [11, 21]: 0 | Sugarbeets plant response rating [11, 22]: 0 | Sugarbeets plant response rating [11, 23]: 0 | Sugarbeets plant response rating [11, 25]: 0 | Sugarbeets plant response rating [11, 26]: 0 | Plant response rating, Sugarbeets [11, 27]: 0 | Velvetleaf plant response rating [12, 20]: 0 | Plant response rating, Velvetleaf [12, 21]: 0 | Velvetleaf plant response rating [12, 22]: 0 | Velvetleaf plant response rating [12, 23]: 0 | Velvetleaf plant response rating [12, 25]: 0 | Velvetleaf plant response rating [12, 26]: 0 | Plant response rating, Velvetleaf [12, 27]: 0 | Wheat plant response rating [13, 20]: 0 | Plant response rating, Wheat [13, 21]: 0 | Wheat plant response rating [13, 22]: 0 | Wheat plant response rating [13, 23]: 0 | Wheat plant response rating [13, 25]: 0 | Wheat plant response rating [13, 26]: 0 | Plant response rating, Wheat [13, 27]: 0 | Wild oats plant response rating [14, 20]: 0 | Plant response rating, Wild oats [14, 21]: 0 | Wild oats plant response rating [14, 22]: 0 | Wild oats plant response rating [14, 23]: 0 | Wild oats plant response rating [14, 25]: 0 | Wild oats plant response rating [14, 26]: 0 | Plant response rating, Wild oats [14, 27]: 0 | Nutsedge plant response rating [15, 20]: 0 | Nutsedge plant response rating [15, 22]: 0 | Nutsedge plant response rating [15, 25]: 0 | Nutsedge plant response rating [15, 26]: 0 | Rice plant response rating [16, 28]: 0 | Plant response rating, Rice (0 to 10 scale, 0 is no effect, 10 is complete control) [16, 29]: 0 | Rice plant response rating (0 to 10 scale, 0 is no effect, 10 is complete control) [16, 30]: 0 | Rice plant response rating [16, 31]: 0 | S. Flatsedge plant response rating [17, 28]: 0 | Plant response rating, S. Flatsedge (0 to 10 scale, 0 is no effect, 10 is complete control) [17, 29]: 0 | S. Flatsedge plant response rating (0 to 10 scale, 0 is no effect, 10 is complete control) [17, 30]: 0 | S. Flatsedge plant response rating [17, 31]: 0 | Ducksalad plant response rating [18, 28]: 0 | Plant response rating, Ducksalad (0 to 10 scale, 0 is no effect, 10 is complete control) [18, 29]: 0 | Ducksalad plant response rating (0 to 10 scale, 0 is no effect, 10 is complete control) [18, 30]: 0 | Ducksalad plant response rating [18, 31]: 0 | Barnyardgrass plant response rating [19, 28]: 0 | Plant response rating, Barnyardgrass (0 to 10 scale, 0 is no effect, 10 is complete control) [19, 29]: 0 | Barnyardgrass plant response rating (0 to 10 scale, 0 is no effect, 10 is complete control) [19, 30]: 0 | Barnyardgrass plant response rating [19, 31]: 0
